A short description of data set [1]: logP by HPLC on reversed phase columns (EEC directive 79/831 Annex V.A8). The class given is physicochemical. To be noted: for chromatographic logP: pH 2.7; for logP: method [a]: LC-MS at pH 2.7, 0.1% formic acid in water / acetonitrile, compounds of formula (I), Table 1.
A further data set has as its system Alternaria brassicae. The data set can be described thus: In vivo preventive test on Alternaria brassicae (leaf spot on radish). To be noted: 500 ppm, radish plants sprayed 24 h before contamination, graded 6 days after contamination. Here is the method: Radish plants (“Pernod Clair” variety), sown in starter cups on a 50/50 peat soil-pozzolana substrate and grown at 17° C., are treated at the cotyledon stage by spraying with the active ingredient prepared as described above. Plants, used as controls, are treated with the mixture of acetone/tween/DMSO/water not containing the active material. After 24 hours, the plants are contaminated by spraying the cotyledons with an aqueous suspension of Alternaria brassicae spores (50 000 spores per ml). The spores are collected from a 15-day-old culture. The contaminated radish plants are incubated at 20° C. and at 100% relative humidity. Grading (% of efficacy) is carried out 6 days after the contamination, in comparison with the control plants.

The subject of a further data set is Pyrenophora teres. As to the kind of experiment: In vivo preventive test on Pyrenophora teres (net blotch on barley). Conditions: graded 14 days after contamination. Here is the method:
Barley plants (“Plaisant” variety), sown in starter cups on a 50/50 peat soil-pozzolana substrate and grown at 22° C., are treated at the 1-leaf stage (10 cm height) by spraying with the active ingredient prepared as described above. Plants, used as controls, are treated with the mixture of acetone/tween/DMSO/water not containing the active material. After 24 hours, the plants are contaminated by spraying the leaves with an aqueous suspension of Pyrenophora teres spores (12 000 spores per ml). The spores are collected from a 12-day-old culture. […] Grading (% of efficacy) is carried out 14 days after the contamination, in comparison with the control plants.

For another data set, the system named is Puccinia recondita. The data set can be described thus: In vivo preventive test on Puccinia recondita (brown rust on wheat). To be noted: graded 12 days after contamination. Here is the method:
Wheat plants (“Scipion” variety), sown in starter cups on a 50/50 peat soil-pozzolana substrate and grown at 22° C., are treated at the 1-leaf stage (10 cm height) by spraying with the active ingredient prepared as described above. Plants, used as controls, are treated with the mixture of acetone/tween/DMSO/water not containing the active material. After 24 hours, the plants are contaminated by spraying the leaves with an aqueous suspension of Puccinia recondita spores (100 000 spores per ml). The spores are collected from an infected plant and are suspended in water to containing 2.5 ml/l of Tween 80 at 10%. […] Grading (% of efficacy) is carried out 12 days after the contamination, in comparison with the control plants.

The next data set has as its system Septoria tritici. As to the kind of experiment: In vivo preventive test on Septoria tritici (leaf spot on wheat). To be noted: 500 ppm, wheat plants sprayed 24 h before contamination, graded 24 days after contamination. Here is the method: Wheat plants (“Scipion” variety), sown in starter cups on a 50/50 peat soil-pozzolana substrate and grown at 22° C., are treated at the 1-leaf stage (10 cm height) by spraying with the active ingredient prepared as described above. Plants, used as controls, are treated with the mixture of acetone/tween/DMSO/water not containing the active material. After 24 hours, the plants are contaminated by spraying the leaves with an aqueous suspension of cryopreserved Septoria tritici spores (500 000 spores per ml). The contaminated wheat plants are incubated for 72 hours at 18° C. and at 100% relative humidity, and then for 21 days at 90% relative humidity. Grading (% of efficacy) is carried out 24 days after the contamination, in comparison with the control plants.

A further data set has as its system Sphaerotheca fuliginea. As to the kind of experiment: In vivo preventive test on Sphaerotheca fuliginea (powdery mildew on cucurbits). Conditions: graded 12 days after contamination. As to the method: Gherkin plants (“Vert petit de Paris” variety), sown in starter cups on a 50/50 peat soil-pozzolana substrate and grown at 24° C., are treated at the Z11 cotyledon stage by spraying with the active ingredient prepared as described above. Plants, used as controls, are treated with the mixture of acetone/tween/DMSO/water not containing the active material. After 24 hours, the plants are contaminated by spraying the cotyledons with an aqueous suspension of Sphaerotheca fuliginea spores (100 000 spores per ml). The spores are collected from infected plants. […] Grading (% of efficacy) is carried out 12 days after the contamination, in comparison with the control plants.

Another data set concerns Uromyces appendiculatus. As to the kind of experiment: In vivo preventive test on Uromyces appendiculatus (bean rust). Conditions: bean plants. As to the method: Bean plants (“Saxa” variety), sown in starter cups on a 50/50 peat soil-pozzolana substrate and grown at 24° C., are treated at the 2-leaf stage (9 cm height) by spraying with the active ingredient prepared as described above. Plants, used as controls, are treated with the mixture of acetone/tween/DMSO/water not containing the active material. After 24 hours, the plants are contaminated by spraying the leaves with an aqueous suspension of Uromyces appendiculatus spores (150 000 spores per ml). The spores are collected from infected plants and are suspended in water containing 2.5 ml/1 of Tween 80 at 10%. […] Grading (% of efficacy) is carried out 11 days after the contamination, in comparison with the control plants.

Where [2] appears, read: 500 ppm, barley plants sprayed 24 h before contamination.
The mark [3] stands for this setting: 500 ppm, wheat plants sprayed 24 h before contamination.
[4] abbreviates: 500 ppm, gherkin plants sprayed 24 h before contamination.
The mark [5] stands for this setting: preventive, dose of 500 ppm, grading 11 days after contamination.
The mark [6] stands for this setting: 100 ppm, graded 11 days after contamination.

This is an account of results in patent US9249104B2, “Pyrazole indanyl carboxamides” (BAYER CROPSCIENCE AG, priority 2012, dated 2016).

`CC1c2cccc(NC(=O)c3cn(C)nc3C(F)F)c2CC12CCCC2` (stereo not drawn) [Example 10, 3-(difluoromethyl)-1-methyl-N-(1′-methyl-1′,3′-dihydrospiro[cyclopentane-1,2′-inden]-4′-yl)-1H-pyrazole-4-carboxamide]: in data set [1], the chromatographic logP amounted to 3.96. Further, the Eff. % in the data set on Alternaria brassicae worked out at 93%; in the data set with Pyrenophora teres (setting [2]), 83%; in the data set on Puccinia recondita (setting [3]), 97%; with Septoria tritici, 100%; with Sphaerotheca fuliginea (setting [4]) it was 100%; with Uromyces appendiculatus (setting [5]), 100%.

On to `CCC1Cc2c(NC(=O)c3c(C)nn(C)c3C)cccc2C1(C)C` (stereo not drawn) [Example 38], for which the logP in data set [1] was 3.55[a]. Further, the Eff. % was 80% with Alternaria brassicae, 100% in the data set with Puccinia recondita (setting [3]) and 100% in the data set on Uromyces appendiculatus (setting [5]).

Regarding `CC(C)C1Cc2c(NC(=S)c3cn(C)nc3C(F)(F)F)cccc2C1(C)C` (racemic) [Example 86], the logP in data set [1] is 4.78[a]. The Eff. % came to 100% in the data set with Pyrenophora teres (100 ppm, barley plants); 100% in the data set on Puccinia recondita (100 ppm, wheat plants); 100% with Sphaerotheca fuliginea (100 ppm, gherkin plants); 100% with Uromyces appendiculatus (setting [6]).

In the case of `CC(C)C1Cc2c(NC(=O)c3cn(C)nc3C(F)F)cccc2C1(C)C` (stereo not drawn) [Example 39], the logP in data set [1] was 4.27[a]. For the same compound, the Eff. % worked out at 98% in the data set with Alternaria brassicae; 98% in the data set with Puccinia recondita (setting [3]); 71% in the data set with Septoria tritici; 100% in the data set with Sphaerotheca fuliginea (setting [4]); 100% with Uromyces appendiculatus (setting [5]).

As to `CC1c2c(NC(=O)c3cn(C)nc3C(F)(F)F)cccc2C(C)(C)C1C` (stereo not drawn) [Example 31], in data set [1], the logP is 3.76[a]. Further, the Eff. % came out at 80% in the data set with Alternaria brassicae; 94% in the data set with Puccinia recondita (setting [3]); 79% in the data set with Septoria tritici; 72% with Sphaerotheca fuliginea (setting [4]); 100% in the data set with Uromyces appendiculatus (setting [5]).

For `CCC1Cc2c(NC(=O)c3c(C)nn(C)c3Cl)cccc2C1(C)C` (racemic) [Example 68], the logP in data set [1] was 4.32[a]. Besides, the Eff. % with Alternaria brassicae is listed as 75%; in the data set on Puccinia recondita (setting [3]), 100%; with Uromyces appendiculatus (setting [5]) it was 100%.

For the compound `CC(C)C1Cc2c(NC(=O)c3c(C(F)(F)F)nn(C)c3F)cccc2C1(C)C` (racemic) [Example 66], in data set [1], the logP is 4.82[a]. Besides, the Eff. % with Alternaria brassicae is 79%; in the data set on Pyrenophora teres (setting [2]), 83%; with Puccinia recondita (setting [3]), 98%; in the data set on Sphaerotheca fuliginea (setting [4]), 98%; in the data set on Uromyces appendiculatus (setting [5]), 100%.

`CC(C)C1Cc2c(NC(=S)c3cn(C)nc3C(F)F)cccc2C1(C)C` (stereo not drawn) [Example 77, 3-(difluoromethyl)-N-(2-isopropyl-1,1-dimethyl-2,3-dihydro-1H-inden-4-yl)-1-methyl-1H-pyrazole-4-carbothioamide] showed a chromatographic logP in data set [1] of 4.54. Besides, the Eff. % worked out at 100% in the data set with Pyrenophora teres (100 ppm, barley plants); 100% with Puccinia recondita (100 ppm, wheat plants); 100% in the data set with Sphaerotheca fuliginea (100 ppm, gherkin plants); 100% with Uromyces appendiculatus (setting [6]).

With `CC(C)CC1Cc2cccc(NC(=O)c3cn(C)nc3C(F)F)c2C1` (stereo not drawn) [Example 4], the Eff. % is on record as 93% in the data set on Alternaria brassicae; 93% with Puccinia recondita (setting [3]); 85% with Septoria tritici; 70% in the data set with Sphaerotheca fuliginea (setting [4]); 100% in the data set with Uromyces appendiculatus (setting [5]).

Take `CCC1(CC)Cc2c(NC(=O)c3cn(C)nc3C(F)F)cccc2C1C` (racemic) [Example 79]: in data set [1], the logP is 4.27[a]. Besides, the Eff. % was 95% in the data set with Alternaria brassicae; 98% with Puccinia recondita (setting [3]); 98% in the data set with Septoria tritici; 100% in the data set on Sphaerotheca fuliginea (setting [4]); 100% with Uromyces appendiculatus (setting [5]).

For `CCc1c(C(=O)Nc2cccc3c2CC(C)C3(C)C)cnn1C` (stereo not drawn) [Example 20], the logP in data set [1] is 3.37[a]. Besides, the Eff. % is reported as 97% with Alternaria brassicae, 100% with Pyrenophora teres (setting [2]) and 97% in the data set on Septoria tritici.

With `Cc1nn(C)c(Cl)c1C(=O)Nc1cccc2c1CC(C(C)C)C2(C)C` (racemic) [Example 69], in data set [1], the logP is 4.76[a]. Further, the Eff. % with Pyrenophora teres (setting [2]) amounted to 75%; in the data set with Puccinia recondita (setting [3]) it was 88%; in the data set with Sphaerotheca fuliginea (setting [4]), 72%; in the data set on Uromyces appendiculatus (setting [5]) it was 100%.

In the case of `CON=C1c2cccc(NC(=O)c3cn(C)nc3C(F)F)c2CC1(C)C` (mixture of isomers) [Example 32], the Eff. % turned out to be 75% in the data set on Alternaria brassicae, 93% in the data set on Puccinia recondita (setting [3]), 100% with Septoria tritici and 98% in the data set on Sphaerotheca fuliginea (setting [4]).

For `Cc1nn(C)c(F)c1C(=O)Nc1cccc2c1CC(C(C)C)C2(C)C` (stereo not drawn) [Example 41], the logP in data set [1] was 4.34[a]. For the same compound, the Eff. % in the data set with Alternaria brassicae came out at 78%; in the data set on Puccinia recondita (setting [3]), 100%; in the data set on Septoria tritici, 71%; in the data set on Sphaerotheca fuliginea (setting [4]) it was 100%; in the data set on Uromyces appendiculatus (setting [5]), 100%.

In the case of `CC1c2cccc(NC(=O)c3cn(C)nc3C(F)(F)F)c2CC1(C)C` (stereo not drawn) [Example 15], the logP in data set [1] was 3.74[a]. The Eff. % in the data set on Alternaria brassicae is listed as 86%; in the data set on Puccinia recondita (setting [3]) it was 96%; in the data set with Sphaerotheca fuliginea (setting [4]), 100%; in the data set with Uromyces appendiculatus (setting [5]), 100%.

Regarding `CCC1Cc2c(NC(=O)c3cn(C)nc3C(F)F)cccc2C1(C)C` (stereo not drawn) [Example 36], in data set [1], the logP was 3.96[a]. Also, the Eff. % in the data set with Pyrenophora teres (setting [2]) was 75%; with Puccinia recondita (setting [3]), 98%; in the data set with Septoria tritici, 86%; in the data set on Sphaerotheca fuliginea (setting [4]) it was 100%; in the data set on Uromyces appendiculatus (setting [5]), 100%.

With `Cn1cc(C(=O)Nc2cccc3c2CC2(CCCC2)C3)c(C(F)F)n1` [Example 25], the logP in data set [1] was 3.74[a]. The Eff. % is reported as 71% in the data set with Alternaria brassicae; 71% with Pyrenophora teres (setting [2]); 94% in the data set with Puccinia recondita (setting [3]); 95% in the data set on Sphaerotheca fuliginea (setting [4]); 100% in the data set on Uromyces appendiculatus (setting [5]).

With `CC(C)C1Cc2c(NC(=O)c3cn(C)nc3C(F)(F)F)cccc2C1(C)C` (stereo not drawn) [Example 40], the logP in data set [1] was 4.46[a]. In addition, the Eff. % in the data set with Alternaria brassicae is 89%; in the data set with Puccinia recondita (setting [3]) it was 98%; in the data set on Septoria tritici it was 93%; in the data set on Sphaerotheca fuliginea (setting [4]) it was 100%; in the data set with Uromyces appendiculatus (setting [5]), 100%.

`Cn1cc(C(=O)Nc2cccc3c2CC2CCCCC32)c(C(F)F)n1` (stereo not drawn) [Example 24]: the logP in data set [1] was 3.81[a]. Moreover, the Eff. % in the data set with Pyrenophora teres (setting [2]) is on record as 86%; with Puccinia recondita (setting [3]) it was 89%; in the data set with Uromyces appendiculatus (setting [5]), 100%.

Consider `CCC1Cc2c(NC(=O)c3c(C(F)(F)F)nn(C)c3F)cccc2C1(C)C` (stereo not drawn) [Example 50], for which the logP in data set [1] was 4.51[a]. Besides, the Eff. % in the data set with Alternaria brassicae is 88%; in the data set on Puccinia recondita (setting [3]), 98%; in the data set with Sphaerotheca fuliginea (setting [4]) it was 98%; with Uromyces appendiculatus (setting [5]), 100%.
